Test results published in ChEMBL document CHEMBL1201862, “PubChem BioAssay data set” (2004).
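Method: 48-hour compound exposure of cells in 96-well plates, five concentrations, linear interpolation of endpoints. The concentration for 50% growth inhibition is given as GI50.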 Activity calls are given as the source filed them. Cut-off read from the data, not from the text of the source: active = GI50 up to about 1.1 µM and inactive = higher.

How the values were obtained:
Experiment in all cases: inhibition of tumour cell growth, NCI panel, 48 h
SF-539 = tested on: SF-539
M14 = tested on: M14
KM-20L2 = tested on: KM-20L2
DMS-114 = tested on: DMS-114
EKVX = tested on: EKVX
IGROV-1 = tested on: IGROV-1
U-251 = tested on: U-251
NCI-H226 = tested on: NCI-H226
OVCAR-5 = tested on: OVCAR-5
SNB-19 = tested on: SNB-19
HCT-15 = tested on: HCT-15
HCT-116 = tested on: HCT-116
HL-60 = tested on: HL-60
UO-31 = tested on: UO-31
OVCAR-4 = tested on: OVCAR-4
SNB-78 = tested on: SNB-78
SW-620 = tested on: SW-620
A498 = tested on: A498
LOX IMVI = tested on: LOX IMVI
SF-295 = tested on: SF-295
SK-OV-3 = tested on: SK-OV-3
SR = tested on: SR
K562 = tested on: K562
SN12C = tested on: SN12C
SF-268 = tested on: SF-268
KM12 = tested on: KM12
SK-MEL-28 = tested on: SK-MEL-28
UACC-257 = tested on: UACC-257
LXFL 529 = tested on: LXFL 529
NCI-H23 = tested on: NCI-H23
A549 = tested on: A549
DLD-1 = tested on: DLD-1
UACC-62 = tested on: UACC-62
NCI-H460 = tested on: NCI-H460
Malme-3M = tested on: Malme-3M
HOP-62 = tested on: HOP-62
TK-10 = tested on: TK-10
HCC 2998 = tested on: HCC 2998
XF498 = tested on: XF498
HT-29 = tested on: HT-29
ACHN = tested on: ACHN
RXF 393 = tested on: RXF 393
MOLT-4 = tested on: MOLT-4
SNB-75 = tested on: SNB-75
OVCAR-3 = tested on: OVCAR-3
M19-MEL = tested on: M19-MEL
CCRF-CEM = tested on: CCRF-CEM
COLO 205 = tested on: COLO 205
T47D = tested on: T47D
CAKI-1 = tested on: CAKI-1
786-0 = tested on: 786-0
DMS-273 = tested on: DMS-273
OVCAR-8 = tested on: OVCAR-8
HOP-92 = tested on: HOP-92
NCI-H522 = tested on: NCI-H522
BT-549 = tested on: BT-549
RPMI-8226 = tested on: RPMI-8226
SK-MEL-5 = tested on: SK-MEL-5
SK-MEL-2 = tested on: SK-MEL-2
MCF7 = tested on: MCF7
MDA-MB-231 = tested on: MDA-MB-231
MDA-N = tested on: MDA-N
PC-3 = tested on: PC-3
MDA-MB-435 = tested on: MDA-MB-435
DU-145 = tested on: DU-145
Hs-578T = tested on: Hs-578T
NCI/ADR-RES = tested on: NCI/ADR-RES

SMILES: Nc1ccc2c(c1)C(=O)N(O)C2=O
- GI50 (SF-539): > 100 µM (inactive)
- GI50 (M14): > 100 µM (inactive)
- GI50 (KM-20L2): > 100 µM (inactive)
- GI50 (DMS-114): > 100 µM (inactive)
- GI50 (EKVX): > 100 µM (inactive)
- GI50 (IGROV-1): > 100 µM (inactive)
- GI50 (U-251): > 100 µM (inactive)
- GI50 (NCI-H226): > 100 µM (inactive)
- GI50 (OVCAR-5): > 100 µM (inactive)
- GI50 (SNB-19): > 100 µM (inactive)
- GI50 (HCT-15): > 100 µM
- GI50 (HCT-116): > 100 µM (inactive)
- GI50 (HL-60): > 100 µM (inactive)
- GI50 (UO-31): > 100 µM (inactive)
- GI50 (OVCAR-4): > 100 µM (inactive)
- GI50 (SNB-78): > 100 µM (inactive)
- GI50 (SW-620): > 100 µM (inactive)
- GI50 (A498): > 100 µM (inactive)
- GI50 (LOX IMVI): > 100 µM (inactive)
- GI50 (SF-295): > 100 µM (inactive)
- GI50 (SK-OV-3): > 100 µM (inactive)
- GI50 (SR): > 100 µM (inactive)
- GI50 (K562): > 100 µM (inactive)
- GI50 (SN12C): > 100 µM (inactive)
- GI50 (SF-268): > 100 µM (inactive)
- GI50 (KM12): > 100 µM (inactive)
- GI50 (SK-MEL-28): > 100 µM (inactive)
- GI50 (UACC-257): > 100 µM (inactive)
- GI50 (LXFL 529): > 100 µM (inactive)
- GI50 (NCI-H23): > 100 µM (inactive)
- GI50 (A549): > 100 µM (inactive)
- GI50 (DLD-1): > 100 µM (inactive)
- GI50 (UACC-62): > 100 µM (inactive)
- GI50 (NCI-H460): > 100 µM (inactive)
- GI50 (Malme-3M): > 100 µM (inactive)
- GI50 (HOP-62): > 100 µM (inactive)
- GI50 (TK-10): > 100 µM (inactive)
- GI50 (HCC 2998): 92 µM (inactive)
- GI50 (XF498): > 100 µM (inactive)
- GI50 (HT-29): > 100 µM (inactive)
- GI50 (ACHN): > 100 µM (inactive)
- GI50 (RXF 393): > 100 µM (inactive)
- GI50 (MOLT-4): > 100 µM (inactive)
- GI50 (SNB-75): > 100 µM (inactive)
- GI50 (OVCAR-3): > 100 µM (inactive)
- GI50 (M19-MEL): > 100 µM (inactive)
- GI50 (CCRF-CEM): > 100 µM (inactive)

SMILES: O=c1c2ccccc2sc2nc(CCl)nn12
- GI50 (SF-539): 32.4 µM (inactive)
- GI50 (M14): 22 µM (inactive)
- GI50 (KM-20L2): 14.5 µM (inactive)
- GI50 (DMS-114): 17.6 µM (inactive)
- GI50 (COLO 205): 13.1 µM (inactive)
- GI50 (T47D): 4.76 µM (inactive)
- GI50 (CAKI-1): 7.82 µM (inactive)
- GI50 (EKVX): 16 µM (inactive)
- GI50 (786-0): 12.4 µM (inactive)
- GI50 (DMS-273): 8.18 µM (inactive)
- GI50 (IGROV-1): 17.2 µM (inactive)
- GI50 (U-251): > 96.8 µM (inactive)
- GI50 (OVCAR-8): > 100 µM (inactive)
- GI50 (NCI-H226): > 100 µM (inactive)
- GI50 (HOP-92): 3.62 µM (inactive)
- GI50 (NCI-H522): 44.8 µM (inactive)
- GI50 (OVCAR-5): 24 µM (inactive)
- GI50 (SNB-19): 77.4 µM (inactive)
- GI50 (HCT-15): 4.6 µM
- GI50 (HCT-116): 4.75 µM (inactive)
- GI50 (HL-60): 14.5 µM (inactive)
- GI50 (UO-31): 8.28 µM (inactive)
- GI50 (BT-549): 27 µM (inactive)
- GI50 (OVCAR-4): > 100 µM (inactive)
- GI50 (SNB-78): > 68.4 µM (inactive)
- GI50 (RPMI-8226): > 97.5 µM (inactive)
- GI50 (SW-620): 12.7 µM (inactive)
- GI50 (A498): 2.64 µM (inactive)
- GI50 (SK-MEL-5): > 100 µM (inactive)
- GI50 (LOX IMVI): > 100 µM (inactive)
- GI50 (SK-MEL-2): 48.4 µM (inactive)
- GI50 (SF-295): 43.1 µM (inactive)
- GI50 (SK-OV-3): 14.8 µM (inactive)
- GI50 (SR): 10.9 µM (inactive)
- GI50 (K562): 2.32 µM (inactive)
- GI50 (SN12C): 9.08 µM (inactive)
- GI50 (SF-268): 20.2 µM (inactive)
- GI50 (KM12): > 100 µM (inactive)
- GI50 (SK-MEL-28): 10.8 µM (inactive)
- GI50 (MCF7): 3.65 µM (inactive)
- GI50 (UACC-257): 14 µM (inactive)
- GI50 (LXFL 529): 19.5 µM (inactive)
- GI50 (NCI-H23): 7.59 µM (inactive)
- GI50 (A549): 31 µM (inactive)
- GI50 (DLD-1): 6.81 µM (inactive)
- GI50 (UACC-62): 5.46 µM (inactive)
- GI50 (NCI-H460): 5.64 µM (inactive)
- GI50 (Malme-3M): 18.5 µM (inactive)
- GI50 (HOP-62): > 100 µM (inactive)
- GI50 (MDA-MB-231): 8.36 µM (inactive)
- GI50 (MDA-N): 4.94 µM (inactive)
- GI50 (TK-10): 10.4 µM (inactive)
- GI50 (HCC 2998): 13.3 µM (inactive)
- GI50 (HT-29): 12.4 µM (inactive)
- GI50 (PC-3): 3.42 µM (inactive)
- GI50 (MDA-MB-435): 8.28 µM (inactive)
- GI50 (ACHN): 6.31 µM (inactive)
- GI50 (DU-145): 7.78 µM (inactive)
- GI50 (RXF 393): 6.75 µM (inactive)
- GI50 (MOLT-4): 97.5 µM (inactive)
- GI50 (SNB-75): 19.2 µM (inactive)
- GI50 (Hs-578T): 2.17 µM (inactive)
- GI50 (OVCAR-3): > 100 µM (inactive)
- GI50 (NCI/ADR-RES): > 100 µM (inactive)
- GI50 (M19-MEL): 19.7 µM (inactive)
- GI50 (CCRF-CEM): > 100 µM (inactive)
